Experiment [1] addresses T1, RNF4 (Homo sapiens, UniProt P78317).
T1 construct: purchased Boston Biochem K-220
T1 sequence (P78317 1-190): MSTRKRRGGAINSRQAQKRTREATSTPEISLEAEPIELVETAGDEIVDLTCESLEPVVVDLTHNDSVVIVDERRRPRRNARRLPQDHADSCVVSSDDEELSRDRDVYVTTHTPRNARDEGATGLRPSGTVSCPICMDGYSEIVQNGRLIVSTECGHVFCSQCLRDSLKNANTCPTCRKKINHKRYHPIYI
The experiment can be described thus: Gel-based ABPP, competition against IA-rhodamine labeling of pure RNF4. Format: binding. To be noted: for pIC50: read-out: 50% inhibitory concentration (IC50), IA-rhodamine labeling of RNF4, densitometry; for pIC50 / hits from covalent ligand screen against IA-rhodamine labeling of RNF4: 30 min pre-incubation; for hits from covalent ligand screen against IA-rhodamine labeling of RNF4: covalent ligands 50 μM, IA-rhodamine 250 nM 1 h. As to the method: Gel-Based ABPP. Gel-based ABPP methods were performed as previously described^5,6,25,26. Pure recombinant human RNF4 was purchased from Boston Biochem (K-220). RNF4 (0.25 μg) was diluted into 50 μL of PBS and 1p L of either DMSO (vehicle) or covalently acting small molecule to achieve the desired concentration. After 30 minutes at room temperature, the samples were treated with 250 nM IA-Rhodamine (Setareh Biotech, 6222, prepared in anhydrous DMSO) for 1 h at room temperature. Samples were then diluted with 20 μL of 4× reducing Laemmli SDS sample loading buffer (Alfa Aesar) and heated at 90° C. for 5 min. The samples were separated on precast 4-20% Criterion TGX gels (Bio-Rad Laboratories, Inc.). Fluorescent imaging was performed on a ChemiDoc MP (Bio-Rad Laboratories, Inc) inhibition of target labeling was assessed by densitometry using ImageJ.

The subject of experiment [2] is 231MFP breast cancer cells. The experiment can be described thus: isoTOP-ABPP proteome-wide selectivity in 231MFP cells in situ. Format: cell-based, human. Here is the method: IsoTOP-ABPP chemoproteomic studies. IsoTOP-ABPP studies were done as previously reported^4,6,7,12. […] Proteomes were subsequently treated with IA-alkyne (100 μM, Chess GmbH, 3187) for 1 h at RT. […] Tryptic peptides were eluted off.
Mass Spectrometry Analysis.

Experiment [3] concerns BRD4. The experiment can be described thus: Cell based degrader assay, BRD4 levels by Western blotting in 231MFP cells. The arrangement: species or system human. The conditions noted are these: for dose-response of BRD4 degradation: 12 h. Here is the method:
(§1) Cell based degrader assays. For assaying degrader activity, cells were seeded (500,000 for 231MFP cells, 300,000 for HeLa cells) into a 6 cm tissue culture dish (Corning) in 2.0-2.5 mL of media and allowed to adhere overnight. The following morning, media was replaced with complete media containing the desired concentration of compound diluted from a 1000× stock in DMSO. At the specified timepoint, cells were washed once with PBS on ice, before 150 uL of lysis buffer was added to the plate (10 mM sodium phosphate, 150 mM NaCl, 0.1% SDS, 0.5% sodium deoxycholate, 1% Triton X100). The cells were incubated in lysis buffer for 5 min before scraping and transfer to microcentrifuge tubes. The lysates were then frozen at −80 C or immediately processed for western blotting. To prepare for western blotting, the lysates were cleared with 20,000 g spin for 10 min and the resulting supernatants quantified via BCA assay. The lysates were normalized by dilution with PBS to match the lowest concentration lysate and appropriate amount of 4× Laemmli's reducing buffer added.
Western blotting. Antibodies to RNF4 (Proteintech, 17810-1-AP, 1:1000), GAPDH (Proteintech, 60004-1-IG, 1:5000), BRD4 (Abcam, Ab128874, 1:1000), and beta-actin (Proteintech Group Inc., 6609-1-IG, 1:7000) were obtained from the specified commercial sources and dilutions were prepared in 5% BSA/TBST at the specified dilutions.
A general note: In western blotting, separated proteins are transferred to a membrane and probed.

Experiment [4] has as its target T2, BRD4 (Homo sapiens, UniProt O60885).
T2 construct: endogenous in cells; host or cells: HeLa cells, RNF4 wild-type and RNF4 knockout
The experiment is described as follows: BRD4 degradation in RNF4 wild-type and knockout HeLa cells. The format is cell-based. The conditions noted are these: 10 μM 5 h. As to the method:
Cell Culture. The 231MFP cells were obtained from Prof. Benjamin Cravatt and were generated from explanted tumor xenografts of MDA-MB-231 cells as previously described^27. RNF4 knockout HeLa cells were purchased from EdiGene USA (CL0033025003A). RNF4 wild-type HeLa cells were provided by EdiGene USA or the UC Berkeley Cell Culture Facility. 231MFP cells were cultured in L-15 media (Corning) containing 10% (v/v) fetal bovine serum (FBS) and maintained at 37° C. with 0% CO2. HeLa cells were cultured in DMEM media (Corning) containing 10% (v/v) fetal bovine serum (FBS) and maintained at 37° C. with 5% CO2.
as §1, with “The cells were incubated in lysis buffer for 5 min before scraping and transfer to microcentrifuge tubes. The lysates were then frozen at −80 C or immediately processed for western blotting.” left out, “The lysates were normalized by dilution with PBS to match the lowest concentration lysate and appropriate amount of 4× Laemmli's reducing buffer added.” left out

Experiment [5] concerns human RNF114. The experiment is described as follows: Gel-based ABPP, competition against JNS27 labeling of pure RNF114. The format is binding. The conditions noted are these: JNS27 50 μM. Here is the method: (§2) Gel-Based ABPP. Gel-based ABPP methods were performed as previously described^34,62,63,67. Recombinant pure human proteins were purchased from Origene. […] CuAAC was performed to append rhodamine-azide (1 μM final concentration) onto alkyne probe-labeled proteins. Samples were then diluted with 20 μL of 4× reducing Laemmli SDS sample loading buffer (Alfa Aesar) and heated at 90° C. for 5 min. The samples were separated on precast 4-20% TGX gels (Bio-Rad Laboratories, Inc.). Prior to scanning by ChemiDoc MP (Bio-Rad Laboratories, Inc), gels were fixed in a solution of 10% acetic acid, 30% ethanol for 2 hrs. Inhibition of target labeling was assessed by densitometry using ImageJ.
as §2, with “described^14.” for “described^34,62,63,67.”

Experiment [6] concerns BRD4. The experiment is described as follows: BRD4 degradation in RNF114 wild-type and knockout HAP1 cells. Format: cell-based, human.
Experiment [7] deals with 231MFP breast cancer cells. The experiment is described as follows: TMT-based quantitative proteomic profiling of 231MFP cells. Format: cell-based, human. To be noted: 100 nM, 12 h.
Text: Data shown in (FIG. 22F) are for 6397 proteins quantified with 2 or more unique peptides in n=3 biologically independent samples/group.
Data shown in FIG. 23I are for 5797 proteins quantified with 2 or more unique peptides in triplicate treatments.
In experiment [8] the target is T3, RNF114 (Homo sapiens, UniProt Q9Y508).
T3 construct: Myc; FLAG; purchased Origene
The experiment is described as follows: Nimbolide-alkyne labeling of RNF114 in 231MFP cells in situ. Format: cell-based. Here is the method: Biotin-azide was appended to probe-labeled proteins by CuAAC, and these proteins were subsequently avidin-enriched. Resulting pulled down proteins were analyzed by SDS/PAGE and Western blotting for RNF114. Gels shown in FIGS. 21C-21F are representative gels from n=3 biologically independent samples/group.

The subject of experiment [9] is 231MFP cells. The experiment is described as follows: Quantitative proteomic profiling of proteins enriched by the nimbolide-alkyne probe in 231MFP cells. To be noted: in situ labeling of 231MFP cells. Format: cell-based, human.

pIC50: −log10 of the molar value. Entries after “also recorded” stand apart in the source; their conditions may differ.

T3 sequence (Q9Y508 whole entry): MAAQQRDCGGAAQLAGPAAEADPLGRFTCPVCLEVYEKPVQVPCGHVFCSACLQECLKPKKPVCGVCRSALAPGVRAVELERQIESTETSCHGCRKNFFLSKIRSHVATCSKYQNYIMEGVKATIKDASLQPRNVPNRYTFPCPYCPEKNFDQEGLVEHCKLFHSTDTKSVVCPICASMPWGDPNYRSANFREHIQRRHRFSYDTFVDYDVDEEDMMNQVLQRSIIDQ

On to `COc1ccc(Oc2ccc(N(Cc3ccccc3)C(=O)CCl)cc2)cc1` [CCW16, N-benzyl-2-chloro-N-(4-(4-methoxyphenoxy)phenyl)acetamide], for which, in experiment [1], the “reduced IA-rhodamine labeling of RNF4 observed down to” value was 1 µM and the pIC50 is 5.74. In [2], the “selectivity for RNF4 in cells” value is listed as “not yet completely selective”.
Turning to `Cc1sc2c(c1C)C(c1ccc(Cl)cc1)=N[C@@H](CC(=O)NCCCCOc1ccc(Oc3ccc(N(Cc4ccccc4)C(=O)CCl)cc3)cc1)c1nnc(C)n1-2` [CCW 28-3, (S)—N-benzyl-2-chloro-N-(4-(4-(4-(2-(4-(4-chlorophenyl)-2,3,9-trimethyl-6H-thieno[3,2-f][1,2,4]triazolo[4,3-a][1,4]diazepin-6-yl)acetamido)butoxy)phenoxy)phenyl)acetamide], the pIC50 in experiment [1] is 6.27. The “BRD4 degradation compared with MZ1” value in [3] is “does not degrade BRD4 as well as”. Besides, the BRD4 degradation entry in experiment [3] (231MFP cells, 3 h) was “leads to BRD4 degradation; also recorded: degrades BRD4 in a dose-responsive manner”. For the same molecule, in [3] (231MFP, inhibitors 10 μM 30 min, degrader 1 μM 3 h), the “BRD4 degradation after pre-treatment with bortezomib (BTZ), JQ1 or TAK-243” value is recorded as “prevented”. Also, in experiment [2], the “selectivity for RNF4 in cells” value is “not yet completely selective”. Further, the “off-targets part of the ubiquitin-proteasome system” value in experiment [2] (10 μM in situ) is recorded as “none of these off-targets of CCW 28-3 are part of the ubiquitin-proteasome system”. The “targets with isotopically light to heavy ratios greater than 4 out of 1114 total quantified probe-modified peptides” value in experiment [2] (10 μM in situ 1 h, IA-alkyne 100 μM) came to 7. The “BRD4 degradation in RNF4 knockout cells” value in experiment [4] (RNF4 knockout HeLa) is listed as “not evident”. Also, the “BRD4 degradation in HeLa control cells” value in [4] (RNF4 wild-type) is “observed”.
In the case of `CC(CCc1ccccc1)NC(=O)CCl` (stereo not shown) [DKM 2-76], the “hits from covalent ligand screen against IA-rhodamine labeling of RNF4” value (“hits from covalent ligand screen” for short) in [1] is “potential hits”.
Take `C#CCC1CCC=CC1=O` (stereo not shown) [JNS27, reference compound]: the “probe labeling of RNF114, wild-type versus C8A mutant” value in experiment [5] is reported as “selective labeling of C8 on RNF114”.
For `Cc1ncsc1-c1ccc(CNC(=O)[C@@H]2C[C@@H](O)CN2C(=O)[C@@H](NC(=O)COCCOCCOCCNC(=O)C[C@@H]2N=C(c3ccc(Cl)cc3)c3c(sc(C)c3C)-n3c(C)nnc32)C(C)(C)C)cc1` [MZ1, reference compound], the “dose-response of BRD4 degradation” value in experiment [3] (231MFP cells) is “less degradation at 20 μM compared to 10, 1, and 0.1 μM; also recorded: better BRD4 degradation at 1 and 0.1 μM, and equivalent degradation to XH2 at 10 nM”.
With `C=CC(=O)NC1Cc2ccccc2C1` [TRH 1-74], the “hits from covalent ligand screen” value in [1] is given as “potential hits”.
As to `O=C(CCl)Nc1cccc2cnccc12` [TRH 1-163, 2-Chloro-N-(isoquinolin-5-yl)acetamide], the “inhibition of IA-rhodamine labeling of RNF4” value in experiment [1] (confirmation of screening hits) was “reproducible and dose-responsive inhibition”. In addition, the “hits from covalent ligand screen” value in [1] is on record as “potential hits”. Also, in experiment [1] (gel-based ABPP gels silver stained), the “silver staining of RNF4” value is listed as “may be causing protein precipitation”.
As to `COC(=O)C[C@H]1[C@]2(C)C3=C(C)[C@H](c4ccoc4-c4ccc(C(=O)NCCOCCOCCOCCNC(=O)C[C@@H]5N=C(c6ccc(Cl)cc6)c6c(sc(C)c6C)-n6c(C)nnc65)cc4)C[C@H]3O[C@@H]2[C@@H]2OC(=O)[C@]3(C)C=CC(=O)[C@@]1(C)[C@@H]23` [XH1], the BRD4 degradation entry in [3] (231MFP cells, 12 h treatment) is recorded as “did not show appreciable BRD4 degradation”.
For the molecule `COC(=O)C[C@H]1[C@]2(C)C3=C(C)[C@H](c4ccoc4-c4ccc(C(=O)NCCCNC(=O)C[C@@H]5N=C(c6ccc(Cl)cc6)c6c(sc(C)c6C)-n6c(C)nnc65)cc4)C[C@H]3O[C@@H]2[C@@H]2OC(=O)[C@]3(C)C=CC(=O)[C@@]1(C)[C@@H]23` [XH2], in experiment [6], the “BRD4 degradation after re-expression of wild-type RNF114 in HAP1 RNF114 knockout cells” value is “restoration of BRD4 degradation”. For the same molecule, in [6] (100 nM, 12 h), the “BRD4 degradation in RNF114 knockout (KO) HAP1 cells” value was “not observed”. The “time to BRD4 degradation” value in experiment [3] (231MFP cells, 100 nM) is reported as not above 12 h. Further, in experiment [3] (231MFP cells), the “dose-response of BRD4 degradation” value was “less degradation at 1 μM compared to 0.1 and 0.01 μM”. Further, the BRD4 degradation result in [3] (231MFP cells, 12 h treatment) is given as “led to BRD4 degradation”. Also, the “BRD4 degradation with proteasome inhibitor bortezomib (BTZ)” value in experiment [3] (231MFP, BTZ 1 μM, degrader 100 nM 12 h) is recorded as “attenuated”. In addition, in experiment [3] (231MFP, TAK-243 10 μM or JQ1 1 μM, degrader 100 nM 12 h), the “BRD4 degradation with TAK-243 or pre-competing JQ1” value is “prevented; also recorded: attenuated”. Further, the “BRD4 degradation with translation inhibitor emetine” value in experiment [3] (231MFP, emetine 75 μM, degrader 100 nM 12 h) is reported as “had no effect”. In experiment [7], the “BRD2 and BRD3 levels” value was “sparing the other identified BET family members BRD2 and BRD3”; the “selectivity of protein degradation, BRD4” value was “selectively degrades BRD4”.
As to `C#CCNC(=O)c1ccc(-c2occc2[C@@H]2C[C@H]3O[C@@H]4[C@@H]5OC(=O)[C@]6(C)C=CC(=O)[C@](C)([C@@H](CC(=O)OC)[C@]4(C)C3=C2C)[C@@H]56)cc1` [nimbolide-alkyne probe], the “in situ probe labeling of Flag-tagged RNF114 observed down to” value in experiment [8] (231MFP cells expressing Flag-RNF114, 2 h) was determined as 100 nM. Moreover, the “pulldown of endogenous RNF114” value in [8] (231MFP cells, 50 μM probe, 1.5 h) is reported as “significant pulldown”. Besides, in experiment [9], the “additional proteins enriched by >10-fold compared to no-probe controls” value worked out at 114 and the “enrichment of RNF114 compared to no-probe controls” value is reported as more than 10 fold.

The values are drawn from patent US12161648B2, “Covalent targeting of E3 ligases” (The Regents of the University of California, priority 2018, dated 2024).
